Measured values reported in US6645996B1, “Physiologically active substances” (Mercian Corporation and Eisai Co., Ltd., priority 1998, dated 2003).

What was measured:
[1] = test system: Endothelial cells derived from human umbilical vein (HUVEC); assay: Inhibitory effect of growth of endothelial cells (MTT method); format: cell-based; conditions: three days
Protocol: Endothelial cells derived from human umbilical vein (HUVEC; manufactured by Sanko Junyaku) incubated in an EGM medium (manufactured by Sanko Junyaku) were adjusted to 1×10^4 cells/ml and each 100 μl were separately placed on a 96-well plate. After incubating overnight, 100 μl of medium containing sample were added thereto followed by incubating for three days. The cell numbers at that time were measured by MTT method. That is, 50 μl of PBS solution containing 0.33% of 3-(4,5-dimethylthiazol-2-yl)-2,5-diphenyltetrazolium bromide (MTT) was added thereto and incubation was continued for further 3-4 hours. After the supernatant liquid of the culture was removed, 100 μl of DMSO was added to dissolve a formazane which was formed in the cells and the absorbance at the wave length of 460 nm was measured by use of plate reader. The IC50 value is defined as a concentration that the absorbance was 50% of that observed when no sample was added.

[2] = Solubility (analysis data); format: physicochemical
aorta pieces of rat = assay: Inhibition of capillary formation in rat aorta model (aorta pieces cultured in collagen gel); format: cell-based; conditions: 7th day from addition of sample
Protocol: In a method of screening the antiangiogenic effect, the degree of inhibition to the formation of lumens observed when an aortic fragment of a rat is cultured in a collagen gel was selected as an indicator (Nicosia R. F., Lab. Invest., 63, 115, 1990). Also, for the purpose of analyzing the mechanism of action of the antiangiogenic effect of the resulting compound, measurements were made concerning the effect of inhibiting the growth of endothelial cells by using endothelial cells derived from the human umbilical cord vein and the effect of inhibiting the expression of an adhesion molecules on endothelial cells.
The antiangiogenic potency was evaluated by the inhibition of capillary formation in rat aorta model in which aorta pieces of rat were cultured in collagen gel. That is, the aorta excised from male rat of Sprague-Dawley strain (8-12 weeks age) was washed with a Hanks' solution so that fat tissues around there were removed minutely. The aorta was incised to prepare pieces of 2 mm square and they were allowed to stand in a 24-well plate holding the endothelial cells upside. Then, 500 μl of neutralized Type I collagen (Cell Matrix Type I-A; manufactured by Nitta Gelatin) were poured over each well and allowed to stand at room temperature for about 20 minutes in a clean bench to solidify the gel. After gelling, 500 μl of MCDB 131 medium (manufactured by Chlorella Kogyo) were added thereto followed by incubating in a Co2 incubator (5% CO2) at 37° C. On the next day, the culture medium was exchanged with 500 μl of MCDB 131 medium containing the sample and the incubation was continued. And, at the stage of the 7th day from the addition of the sample, numbers of capillaries formed around the aorta were counted. The IC50 value of each sample is defined as a concentration that the number of blood capillaries is 50% of that observed when no sample was added.

VCAM-1 = assay: Inhibition of TNFα-induced expression of adhesion molecule VCAM-1 on endothelial cells; format: cell-based, human; conditions: HUVEC, TNFα 1 ng/ml, 4 hours
Protocol: (§1) Endothelial cells derived from human umbilical vein (HUVEC) were cultured on a 96-well plate until they were fallen in a confluent state. The culture broth was removed. After 150 μl of a new culture broth was added to each well, 20 μl of a sample solution was added thereto. After 15 minutes, 30 μl of TNFα was added such that the final concentration became 1 ng/ml and it was incubated at 37° C. for 4 hours in a 5% CO2 incubator. Next, the culture broth was removed and the cells were washed twice with a phosphate buffer (PBS). Further, a PBS solution containing 0.025% glutaraldehyde was added and the well was allowed to stand at room temperature for 6 minutes to fix the cells. After the cells were immobilized, they were washed twice with 200 μl of phosphate buffer (PBSA) containing 0.25% BSA. Thereafter 100 μl of a PBSA solution containing 1 μg/ml of mouse anti-human VCAM-1 (R&D systems) or a mouse anti-human E-selectin antibody (R&D systems) was added to each well. The well was allowed to stand at room temperature for 30 minutes and then the cells were again washed. A PBSA solution containing 100 μl of peroxidase-conjugated goat anti-mouse antibody (Cosmo Bio Co., Ltd.) was added to the well. Then the well was allowed to stand at room temperature for 30 minutes and thereafter the cells were washed. In succession, 100 μl of 3,3*,5,5*-tetramethylbenzyidine (TMB) substrate solution was added to develop a color. Next, the coloring was stopped by 100 μl of 1M phosphoric acid to measure the absorbance at 450 nm.

E-selectin = assay: Inhibition of TNFα-induced expression of adhesion molecule E-selectin on endothelial cells; format: cell-based, human; conditions: HUVEC, TNFα 1 ng/ml, 4 hours
Protocol: as §1

[3] = Safety of VD1207 analogues, intraperitoneal administration over 4 days; format: in vivo; set-up: key to Blood (WBC) / Blood (PLAT) / Biochemistry (UN) / Biochemistry (GPT) / Weight (liver) / Weight (kidney) / Weight (lung) / Weight (spleen) / Body weight / Blood (RBC): —: “-” indicates no abnormality; “↑” and “↓” indicate an increase and a decrease, respectively; “↑” and “↓” indicate an increase and a decrease, respectively
Protocol: Each of VD1207B, C, D, E, F and G2 was continuously administered intraperitoneally at each dose of 1 mg/kg and 2 mg/kg over 4 days to examine the safety of VD1207 analogues.

[4] = 1 mg/kg i.p. 4 days, listed as B
[5] = 2 mg/kg i.p. 4 days, listed as B
[6] = 2 mg/kg i.p. 4 days, listed as E
[7] = 2 mg/kg i.p. 4 days, listed as F

Row | Structure (SMILES) | Solubility in ethyl acetate, chloroform and dimethyl sulfoxide [2] | Solubility in neutral water [2] | IC50 (number of blood capillaries 50% of that without sample) (aorta pieces of rat) [µg/mL] | VCAM-1 (IC50 of expression) (VCAM-1) [µg/mL] | Biochemistry (GPT) ([3]; 1 mg/kg i.p. 4 days) | Biochemistry (UN) ([3]; 1 mg/kg i.p. 4 days) | Blood (PLAT) ([3]; 1 mg/kg i.p. 4 days) | Blood (RBC) ([3]; 1 mg/kg i.p. 4 days) | Blood (WBC) ([3]; 1 mg/kg i.p. 4 days) | Body weight ([3]; 1 mg/kg i.p. 4 days) | Weight (liver) ([3]; 1 mg/kg i.p. 4 days) | Weight (spleen) ([3]; 1 mg/kg i.p. 4 days) | Biochemistry (GPT) ([3]; 2 mg/kg i.p. 4 days) | Biochemistry (UN) ([3]; 2 mg/kg i.p. 4 days) | Blood (RBC) ([3]; 2 mg/kg i.p. 4 days) | Blood (WBC) ([3]; 2 mg/kg i.p. 4 days) | Weight (liver) ([3]; 2 mg/kg i.p. 4 days) | Weight (spleen) ([3]; 2 mg/kg i.p. 4 days) | Weight (lung) ([3]; 1 mg/kg i.p. 4 days) | IC50 (growth of endothelial cells, absorbance 50% of no sample) [1] [µg/mL] | also measured
1 | CCC1OC12C(O)CC(C(CC(C)C)C(=O)c1cc(C(=O)C(C)C)c(O)cc1O)OC2O (single isomer, unassigned) [VD1207 A1] | soluble | insoluble |  |  |  |  |  |  |  |  |  |  |  |  |  |  |  |  |  |  | IC50 (growth of endothelial cells, absorbance 50% of no sample) ([1]; listed as A1): 17.6 µg/mL
2 | CCC1OC12C(O)CC(C(CC(C)C)C(=O)c1cc(C(=O)C(C)C)c(O)cc1O)OC2O (single isomer, unassigned) [VD1207 A2] | soluble | insoluble | 1 |  |  |  |  |  |  |  |  |  |  |  |  |  |  |  |  |  | IC50 (growth of endothelial cells, absorbance 50% of no sample) ([1]; listed as A2): 18.7 µg/mL
3 | CCCC(C(=O)c1cc(C(OC)C(C)C)c(O)c(C=O)c1O)C1CC(O)C2(OC2CC)C(O)O1 (single isomer, unassigned) [VD1207 B] | soluble | insoluble |  | 2.48 | — | — | — | — | — | — | ↑ | — | — | — | — | — | ↑ | — |  |  | IC50 (number of blood capillaries 50% of that without sample) (aorta pieces of rat; listed as B): 0.053 µg/mL; IC50 (growth of endothelial cells, absorbance 50% of no sample) ([1]; listed as B): 0.24 µg/mL; E-select (IC50 of expression) (E-selectin): 4.0 µg/mL; Weight (kidney) [3, 4]: —; Weight (lung) [3, 4]: —; Blood (PLAT) [3, 5]: —; Body weight [3, 5]: —; Weight (kidney) [3, 5]: —; Weight (lung) [3, 5]: —
4 | CCC1OC12C(O)CC(C(CC(C)C)C(=O)c1cc(C(OC)C(C)C)c(O)c(C=O)c1O)OC2O (single isomer, unassigned) [VD1207 E] | soluble | insoluble |  |  | — | — | — | — | — | — | ↑ | — |  |  |  | ↓ |  |  | — |  | IC50 (number of blood capillaries 50% of that without sample) (aorta pieces of rat; listed as E): 0.047 µg/mL; IC50 (growth of endothelial cells, absorbance 50% of no sample) ([1]; listed as E): 0.21 µg/mL; VCAM-1 (IC50 of expression) (VCAM-1; listed as E): 2.59 µg/mL; E-select (IC50 of expression) (E-selectin; listed as E): 4.44 µg/mL; Weight (kidney) ([3]; 1 mg/kg i.p. 4 days, listed as E): —; Weight (kidney) [3, 6]: —; Weight (lung) [3, 6]: —
5 | CCC1OC12C(O)CC(C(CC(C)C)C(=O)c1cc(C(OC)C(C)C)c(O)c(C=O)c1O)OC2O (single isomer, unassigned) [VD1207 F] | soluble | insoluble |  |  |  |  |  |  | — |  |  |  | — | — | — | ↓ | ↑ | — | — |  | IC50 (number of blood capillaries 50% of that without sample) (aorta pieces of rat; listed as F): 0.067 µg/mL; IC50 (growth of endothelial cells, absorbance 50% of no sample) ([1]; listed as F): 0.06 µg/mL; VCAM-1 (IC50 of expression) (VCAM-1; listed as F): <0.63 µg/mL; E-select (IC50 of expression) (E-selectin; listed as F): 0.84 µg/mL; Weight of each of the liver, kidney and lung (autoptic findings) ([3]; 1 mg/kg and 2 mg/kg i.p. 4 days): increase; Weight (kidney) ([3]; 1 mg/kg i.p. 4 days, listed as F): ↑; Blood (PLAT) ([3]; 2 mg/kg i.p. 4 days): —; Body weight ([3]; 2 mg/kg i.p. 4 days): —; Weight (kidney) [3, 7]: ↑; Weight (lung) [3, 7]: ↑
6 | CCCC(C(=O)c1cc(CC(C)C)c(O)c(C=O)c1O)C1CC(O)C2(OC2CC)C(O)O1 (stereo not drawn) [VD1207 D] | soluble | insoluble | 0.019 | 1.11 | — | — | — | — | — | — | ↑ | — | — | — | — | — | ↑ | — | — | 0.18 | E-select (IC50 of expression) (E-selectin): 1.40 µg/mL; Weight (kidney) ([3]; 1 mg/kg i.p. 4 days): —; Blood (PLAT) ([3]; 2 mg/kg i.p. 4 days): —; Body weight ([3]; 2 mg/kg i.p. 4 days): —; Weight (kidney) ([3]; 2 mg/kg i.p. 4 days): —; Weight (lung) ([3]; 2 mg/kg i.p. 4 days): —
7 | CCCC(C(=O)c1cc(CC(C)C)c(O)c(C=O)c1O)C1CC(O)C2(OC2CCC)C(O)O1 (stereo not drawn) [VD1207 G1] | soluble | insoluble | 0.070 |  |  |  |  |  |  |  |  |  |  |  |  |  |  |  |  | 0.11 | 
8 | CCC1OC12C(O)CC(C(CC(C)C)C(=O)c1cc(CC(C)C)c(O)c(C=O)c1O)OC2O (stereo not drawn) [VD1207 G2] | soluble | insoluble | 0.034 |  | — | — | — | — | — | — | ↑ | — | — | — | — | ↓ | ↑ | — | — | 0.07 | Weight (kidney) ([3]; 1 mg/kg i.p. 4 days): —; Blood (PLAT) ([3]; 2 mg/kg i.p. 4 days): —; Body weight ([3]; 2 mg/kg i.p. 4 days): —; Weight (kidney) ([3]; 2 mg/kg i.p. 4 days): —; Weight (lung) ([3]; 2 mg/kg i.p. 4 days): —
9 | CCCC(C(=O)c1cc(CC(C)C)c(O)c(C(C)=O)c1O)C1CC(O)C2(OC2CC)C(O)O1 (stereo not drawn) [VD1207 H] | soluble | insoluble | 0.38 | 1.06 |  |  |  |  |  |  |  |  |  |  |  |  |  |  |  | 0.52 | E-select (IC50 of expression) (E-selectin): 2.48 µg/mL
